Laboratory results reported in patent publication US20200055871A1, “ACTIVATORS OF THE RETINOIC ACID INDUCIBLE GENE "RIG-I" PATHWAY AND METHODS OF USE THEREOF” (Kineta Immuno-Oncology LLC, priority 2018, published 2020).
Where two headings read alike, the source gives them in different places.

What was measured:
[1] = test system: IRF3 signaling pathway in THP1-Lucia™ ISG cells; test: THP1-Lucia ISG reporter assay: induction of IRF3-dependent gene expression (secreted luciferase); assay type: cell-based, human; conditions: Homo sapiens, THP1-Lucia ISG, read-out: fold increase of IRF3-dependent luciferase activity over background, THP1 ISG
Procedure: The compounds were evaluated in the THP1-Lucia™ ISG (interferon stimulated genes) reporter assay to determine if the compounds activate the IRF3 signaling pathway. The THP1-Lucia™ cells (InvivoGen) express the secreted luciferase (Lucia) reporter gene under the control of an IRF-inducible promoter. The reporter cell line was developed from human monocytic leukemia THP-1 cells.
The promoter was comprised of five IFN-stimulated response elements (ISRE) fused to an ISG54 minimal promoter which is unresponsive to NF-kB or AP-1 pathways. […] The IRF3-deficient THP1-Lucia™ ISG IRF3−/−reporter cell line was generated by CRISPR technology from the parent THP1-Lucia™ ISG reporter cell line.
THP1-Lucia™ ISG cells and IRF3-deficient THP1-Lucia™ ISG IRF3−/−cells were differentiated with PMA (100 ng/ml) and stimulated with compounds at the indicated concentrations (5 to 20 μM), positive control, or not treated (background). Luciferase secretion was quantified using the QUANTI-Luc luciferase assay system (InvivoGen) 18 h after stimulation. Data are shown as fold increase luciferase activity over background in Table 7 and represent the IRF3-dependent ISG54 promoter activity by the THP1-Lucia™ ISG cells in response to compounds. […] The fold increase of compounds (10 μM, *20 μM, **5 μM) induced IRF3 dependent luciferase activity is indicated as follows: “≠” indicates less than 2.4 fold increase; “+” indicates a 2.4-4.9 fold increase; “++” indicates a 5-9.9 fold increase; “+++” indicates a 10-19 fold increase; “++++” indicates a 20-39 fold increase; “+++++” indicates greater than or equal to 40 fold increase.

[2] = test system: RIG-I deficient CT26 RIG-I−/− cells; test: CXCL10 secretion by RIG-I deficient CT26 RIG-I−/− cells (ELISA); assay type: cell-based, murine; conditions: compound 5 to 20 μM, 24 h
Procedure: (§1) The CT26 murine colon carcinoma cell line (ATCC) was used to evaluate the induction of CXCL10 secretion. CXCL10 is an important chemokine in tumor immune biology that recruits tumor-specific T cells to the tumor. To confirm that compound-mediated CXCL10 production was RIG-I specific, RIG-1 deficient CT2-RIG-I−/−cells were generated by Kineta Inc. using CRISPR technology.
(§2) CT26 cells were seeded at a density of 1×10^4 cells per well on a 96-well tissue culture plate in 100 μL of cell culture and cells were incubated at 37° C. and 5% CO2 for 24 hr. Next, CT26 cells were treated with compounds at the indicated concentrations. CXCL10 was quantified by ELISA from supernatants taken 24 h after compound stimulation by use of the CXCL10 Duo Set ELISA kit (Cat #DY466, R&D, Minneapolis, Minn., USA) according to the manufacturer's instructions.
(§3) CXCL10 secretion by CT26 cells in response to compounds (in an amount of 5 to 20 μM) of the present disclosure is shown in Table 8. The compound-induced CXCL10 production was RIG-I dependent, since none of the compounds mediated CXCL10 secretion in RIG-I deficient CT26 RIG-I−/−cells (about 0 pg/mL of CXCL10, or below the level of quantitation). The compounds (10 μM, *20 μM, **5 μM) are indicated in the table as follows: “≠” indicates less than 100 pg/mL; “+” indicates 100-199 pg/mL; “++” indicates 200-399 pg/mL; “+++” indicates 400-799 pg/mL; “++++” indicates 800 to 1599 pg/mL; “+++++” indicates greater than or equal to 1600 pg/ml.

[3] = test system: murine CT26 colon carcinoma cells; test: RIG-I dependent CXCL10 secretion by CT26 cells (ELISA); assay type: cell-based; conditions: supernatant 24 h after stimulation
Procedure: as §1, §2, §3

[4] = 10 μM compound, PMA-differentiated cells, 18 h after stimulation
[5] = 20 μM compound (*), PMA-differentiated cells, 18 h after stimulation

Row | SMILES | fold induction at 10 µM [1, 4] | CXCL10 secretion, CT26 RIG-I−/− [2] | CXCL10 secretion, CT26 ([3]; 10 μM compound) | CXCL10 secretion, CT26 ([3]; 20 μM compound (*)) | fold induction at 20 µM [1, 5] | fold induction at 10 µM ([1]; 18 h) | fold induction at 20 µM ([1]; 18 h)
1 | O=C(Nc1nc2ccc3scnc3c2s1)c1cc2ccccc2cc1OCCCN1CCOCC1 [Example 1, N-{3,10-dithia-5,12-diazatricyclo[7.3.0.0^2,6]dodeca-1,4,6,8,11-pentaen-4-yl}-3-[3-(morpholin-4-yl)propoxy]naphthalene-2-carboxamide] | 2.4 to 4.9 | − | ++++ (800 to 1599 pg/mL) |  |  |  | 
2 | COc1cc(OC)cc(C(=O)Nc2nc3ccc4sc(C)nc4c3s2)c1 [Example 2, 3,5-dimethoxy-N-{11-methyl-3,10-dithia-5,12-diazatricyclo[7.3.0.0^2,^6]dodeca-1,4,6,8,11-pentaen-4-yl}benzamide] | 5 to 9.9 | − |  | ++++* (800 to 1599 pg/mL) |  |  | 
3 | CCN(CC)S(=O)(=O)c1ccc(C(=O)Nc2nc3ccc4sc(C)nc4c3s2)cc1 [Example 3, 4-(diethylsulfamoyl)-N-{11-methyl-3,10-dithia-5,12-diazatricyclo[7.3.0.0^2,^6]dodeca-1,4,6,8,11-pentaen-4-yl}benzamide] |  | − |  | ++* (200-399 pg/mL) | 5 to 9.9 |  | 
4 | O=C(Nc1nc2ccc3scnc3c2s1)c1ccc2c(c1)OCO2 [Example 4, N-{3,10-dithia-5,12-diazatricyclo[7.3.0.0^2,^6]dodeca-1,4,6,8,11-pentaen-4-yl}-2H-1,3-benzodioxole-5-carboxamide] |  | − | +++ (400-799 pg/mL) |  |  | 10 to 19 | 
5 | CCCCCOc1ccc(C(=O)Nc2nc3ccc4sc(C)nc4c3s2)cc1 [Example 5, N-{11-methyl-3,10-dithia-5,12-diazatricyclo[7.3.0.0^2,^6]dodeca-1,4,6,8,11-pentaen-4-yl}-4-(pentyloxy)benzamide] | 5 to 9.9 | − |  | +* (100-199 pg/mL) |  |  | 
6 | Cc1nc2c(ccc3nc(NC(=O)c4ccc(N(C)C)cc4)sc32)s1 [Example 6, 4-(dimethylamino)-N-{11-methyl-3,10-dithia-5,12-diazatricyclo[7.3.0.0^2,^6]dodeca-1,4,6,8,11-pentaen-4-yl}benzamide] | 10 to 19 | − | ++ (200-399 pg/mL) |  |  |  | 
7 | O=C(Nc1nc2ccc3scnc3c2s1)c1ccc(Cl)c(C(F)(F)F)c1 [Example 7, 4-chloro-N-{3,10-dithia-5,12-diazatricyclo[7.3.0.0^2,^6]dodeca-1,4,6,8,11-pentaen-4-yl}-3-(trifluoromethyl)benzamide] | 2.4 to 4.9 | − | ++++ (800 to 1599 pg/mL) |  |  |  | 
8 | O=C(Nc1nc2ccc3scnc3c2s1)c1cccc(C(F)(F)F)c1 [Example 8, N-{3,10-dithia-5,12-diazatricyclo[7.3.0.0^2,^6]dodeca-1,4,6,8,11-pentaen-4-yl}-3-(trifluoromethyl)benzamide] |  | − |  | +* (100-199 pg/mL) | 10 to 19 |  | 
9 | O=C(Nc1nc2ccc3scnc3c2s1)c1cccc([N+](=O)[O-])c1 [Example 9, N-{3,10-dithia-5,12-diazatricyclo [7.3.0.0^2,^6]dodeca-1,4,6,8,11-pentaen-4-yl}-3-nitrobenzamide] | 2.4 to 4.9 | − | +++ (400-799 pg/mL) |  |  |  | 
10 | O=C(Nc1nc2ccc3scnc3c2s1)c1cc2ccccc2s1 [Example 11, N-{3,10-dithia-5,12-diazatricyclo[7.3.0.0^2,^6]dodeca-1,4,6,8,11-pentaen-4-yl}-1-benzothiophene-2-carboxamide] | 2.4 to 4.9 | − | ++ (200-399 pg/mL) |  |  |  | 
11 | O=C(Nc1nc2ccc3scnc3c2s1)c1ccc2nsnc2c1 [Example 12, N-{3,10-dithia-5,12-diazatricyclo[7.3.0.0^2,^6]dodeca-1,4,6,8,11-pentaen-4-yl}-2,1,3-benzothiadiazole-5-carboxamide] | 5 to 9.9 | − | ++++ (800 to 1599 pg/mL) |  |  |  | 
12 | O=C(Nc1nc2ccc3scnc3c2s1)c1ccc2c(c1)CCCC2 [Example 13, N-{3,10-dithia-5,12-diazatricyclo[7.3.0.0^2,^6]dodeca-1,4,6,8,11-pentaen-4-yl}-5,6,7,8-tetrahydronaphthalene-2-carboxamide] |  | − | +++ (400-799 pg/mL) |  |  |  | 5 to 9.9
13 | O=C(Nc1nc2ccc3scnc3c2s1)c1ccc2sccc2c1 [Example 14, N-{3,10-dithia-5,12-diazatricyclo[7.3.0.0^2,^6]dodeca-1,4,6,8,11-pentaen-4-yl}-1-benzothiophene-5-carboxamide] | 10 to 19 | − |  | ++* (200-399 pg/mL) |  |  | 
14 | O=C(Nc1nc2ccc3scnc3c2s1)c1ccc2occc2c1 [Example 15, N-{3,10-dithia-5,12-diazatricyclo[7.3.0.0^2,^6]dodeca-1,4,6,8,11-pentaen-4-yl}-1-benzofuran-5-carboxamide] |  | − | ++ (200-399 pg/mL) |  | 2.4 to 4.9 |  | 
15 | COc1cc2ccccc2cc1C(=O)Nc1nc2ccc3scnc3c2s1 [Example 16, N-{3,10-dithia-5,12-diazatricyclo[7.3.0.0^2,^6]dodeca-1,4,6,8,11-pentaen-4-yl}-3-methoxynaphthalene-2-carboxamide] | 10 to 19 | − | ++ (200-399 pg/mL) |  |  |  | 
16 | Cn1c(C(=O)Nc2nc3ccc4scnc4c3s2)cc2ccccc21 [Example 17, N-{3,10-dithia-5,12-diazatricyclo[7.3.0.0^2,^6]dodeca-1,4,6,8,11-pentaen-4-yl}-1-methyl-1H-indole-2-carboxamide] | 10 to 19 | − | ++ (200-399 pg/mL) |  |  |  | 
17 | CCc1nc2c(ccc3nc(NC(=O)c4ccc5ccccc5c4)sc32)s1 [Example 18, N-{11-ethyl-3,10-dithia-5,12-diazatricyclo[7.3.0.0^2,^6]dodeca-1,4,6,8,11-pentaen-4-yl}naphthalene-2-carboxamide] | 20 to 39 | − |  | +* (100-199 pg/mL) |  |  | 
18 | Cn1c(C(=O)Nc2cc3ccc4scnc4c3s2)cc2ccccc21 [Example 71, N-{5,12-dithia-3-azatricyclo[7.3.0.0^2,^6]dodeca-1,3,6,8,10-pentaen-11-yl}-1-methyl-1H-indole-2-carboxamide] |  |  | + (100-199 pg/mL) |  |  |  | 
